The values that follow come from patent publication US9635859B2, “Pesticidal compositions and processes related thereto” (Dow AgroSciences LLC, priority 2012, dated 2017).

Assay [1] relates to Beet Armyworm (Spodoptera exigua). Put plainly: Bioassays on BAW, 128-well diet tray assay. Type of assay: in vivo. To be noted: percent mortality, second instar larvae, 50 μg/cm^2 on artificial diet, five to seven days, 25° C.; Table 3. In outline: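 Second-instar larvae (one to five per well) were placed on artificial diet surface-treated with 50 μg/cm^2 compound in acetone-water and held at 25 °C, 14:10 light-dark, for five to seven days. Percent mortality was averaged over eight wells.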

Assay [2] concerns Cabbage Looper (Trichoplusia ni). Put plainly: Bioassays on CL, 128-well diet tray assay. Type of assay: in vivo. The settings on record: percent mortality, second instar larvae, 50 μg/cm^2 on artificial diet, five to seven days, 25° C.; Table 3A. The method, then:
Certain molecules disclosed in this document were tested against BAW and CEW and CL using procedures described in the following examples. In the reporting of the results, the “BAW & CEW & CL Rating Table” was used (See Table Section).
Bioassays on CL (Trichoplusia ni)
Bioassays on CL were conducted using a 128-well diet tray assay. One to five second instar CL larvae were placed in each well (3 mL) of the diet tray that had been previously filled with 1 mL of artificial diet to which 50 μg/cm^2 of the test compound (dissolved in 50 μL of 90:10 acetone-water mixture) had been applied (to each of eight wells) and then allowed to dry. Trays were covered with a clear self-adhesive cover, and held at 25° C., 14:10 light-dark for five to seven days. Percent mortality was recorded for the larvae in each well; activity in the eight wells was then averaged. The results are indicated in the table entitled “Table 3A: Assay Results” (See Table Section).

For the compound `CCNC(=S)NCc1ccc(/C=C/C(c2cc(Cl)c(Cl)c(Cl)c2)C(F)(F)F)cc1Cl` (stereo not drawn) [CC37, (E)-1-(2-Chloro-4-(4,4,4-trifluoro-3-(3,4,5-trichlorophenyl)but-1-en-1-yl)benzyl)-3-ethylthiourea], in assay [1], the “BAW Rating” value was “A (50-100)”.
On the same count and under the same terms, the same measure for `C=CCNC(=S)NCc1ccc(/C=C/C(c2cc(Cl)c(Cl)c(Cl)c2)C(F)(F)F)cc1Cl` (stereo not drawn) [CC38]: “A (50-100)”; for `FC(F)(F)C(/C=C/c1ccc(CNc2ccccn2)c(Cl)c1)c1cc(Cl)c(Cl)c(Cl)c1` (stereo not drawn) [CC43, (E)-N-(2-Chloro-4-(4,4,4-trifluoro-3-(3,4,5-trichlorophenyl)but-1-en-1-yl)benzyl)pyridin-2-amine]: “A (50-100)”.
Same read-out and setting: with `O=C(CC(F)(F)F)NCc1ncc(/C=C/C(c2cc(Cl)c(Cl)c(Cl)c2)C(F)(F)F)cc1Cl` (stereo not drawn) [CC44, (E)-N-((3-Chloro-5-(4,4,4-trifluoro-3-(3,4,5-trichlorophenyl)-but-1-en-1-yl)pyridin-2-yl)methyl)-3,3,3-trifluoropropanamide] the entry was “A (50-100)”.
Same read-out and setting: the same measure for `O=C(NCc1ncc(/C=C/C(c2cc(Cl)c(Cl)c(Cl)c2)C(F)(F)F)cc1Cl)C1CC1` (stereo not drawn) [CC45]: “A (50-100)”; for `O=C(NNc1ccc(/C=C/C(c2cc(Cl)c(Cl)c(Cl)c2)C(F)(F)F)cc1)C1CC1` (stereo not drawn) [CC50, (E)-N′-(4-(4,4,4-Trifluoro-3-(3,4,5-trichlorophenyl)but-1-en-1-yl)phenyl)cyclopropanecarbohydrazide]: “A (50-100)”; for `O=C(CC(F)(F)F)NNc1ccc(/C=C/C(c2cc(Cl)c(Cl)c(Cl)c2)C(F)(F)F)cc1` (stereo not drawn) [CC51]: “A (50-100)”.
On to `O=C(NOc1ccc(/C=C/C(c2cc(Cl)c(Cl)c(Cl)c2)C(F)(F)F)cc1)C1CC1` (stereo not drawn) [CC52, (E)-N-(4-(4,4,4-Trifluoro-3-(3,4,5-trichlorophenyl)but-1-en-1-yl)phenoxy)cyclopropanecarboxamide], for which, in assay [1], the “BAW Rating” value is listed as “A (50-100)”.
The same measure, in the same setting: the same measure for `O=C(CC(F)(F)F)NCc1ccc(/C=C\C(c2cc(Cl)c(Cl)c(Cl)c2)C(F)(F)F)cc1` (stereo not drawn) [CC54, (Z)-3,3,3-Trifluoro-N-(4-(4,4,4-trifluoro-3-(3,4,5-trichlorophenyl)but-1-en-1-yl)benzyl)propanamide]: “A (50-100)”.
Regarding `CCNC(=O)N(C)NC(=O)c1ccc(/C=C/C(c2cc(Cl)c(Cl)c(Cl)c2)C(F)(F)F)cc1Br` (stereo not drawn) [Compound F1, (E)-2-(2-Bromo-4-(4,4,4-trifluoro-3-(3,4,5-trichlorophenyl)but-1-en-1-yl)benzoyl)-N-ethyl-1-methylhydrazinecarboxamide], the “CL Rating” value in assay [2] was “A (50-100)”.
Turning to `FC(F)(F)C(/C=C/c1ccc(-n2cncn2)cc1)c1cc(Cl)cc(Cl)c1` (stereo not drawn) [DC1, (E)-1-(4-(3-(3,5-Dichlorophenyl)-4,4,4-trifluorobut-1-en-1-yl)phenyl)-1H-1,2,4-triazole], the “BAW Rating” value in assay [1] was “A (50-100)”.
Consider `FC(F)(F)C(/C=C/c1ccc(-n2cncn2)cc1)c1ccccc1` (stereo not drawn) [DC3], for which, in assay [1], the “BAW Rating” value is given as “B (More than 0-Less than 50)”.
The same measure, in the same setting: with `FC(F)(F)C(/C=C/c1ccc(-n2cncn2)cc1)c1ccc(Cl)cc1` (stereo not drawn) [DC4] the entry was “A (50-100)”; with `Fc1ccc(C(/C=C/c2ccc(-n3cncn3)cc2)C(F)(F)F)cc1` (stereo not drawn) [DC7], “A (50-100)”; with `Fc1cc(F)cc(C(/C=C/c2ccc(-n3cncn3)cc2)C(F)(F)F)c1` (stereo not drawn) [DC8], “A (50-100)”.
Same read-out and setting: with `Cc1cc(C)cc(C(/C=C/c2ccc(-n3cncn3)cc2)C(F)(F)F)c1` (stereo not drawn) [DC11] the entry was “A (50-100)”; with `FC(F)(F)C(/C=C/c1ccc(-n2cncn2)cc1)c1ccc(Cl)c(Cl)c1` (stereo not drawn) [DC12], “A (50-100)”.
As to `FC(F)(F)c1cc(C(/C=C/c2ccc(-n3cncn3)cc2)C(F)(F)F)cc(C(F)(F)F)c1` (stereo not drawn) [DC16], the “BAW Rating” value in assay [1] is “A (50-100)”.
Still for that read-out and setting: with `COc1c(Cl)cc(C(/C=C/c2ccc(-n3cncn3)cc2)C(F)(F)F)cc1Cl` (stereo not drawn) [DC20] the entry was “A (50-100)”; with `N#Cc1cc(/C=C/C(c2cc(Cl)cc(C(F)(F)F)c2)C(F)(F)F)ccc1-n1cncn1` (stereo not drawn) [DC33], “A (50-100)”.
The same measure, in the same setting: the same measure for `COc1c(Cl)cc(C(/C=C/c2ccc(-n3cncn3)c(C#N)c2)C(F)(F)F)cc1Cl` (stereo not drawn) [DC34]: “A (50-100)”.
On the same count and under the same terms, the same measure for `N#Cc1cc(/C=C/C(c2cc(Cl)c(F)c(Cl)c2)C(F)(F)F)ccc1-n1cncn1` (stereo not drawn) [DC35]: “A (50-100)”; for `N#Cc1cc(/C=C/C(c2cc(Cl)cc(Cl)c2)C(F)(F)F)ccc1-n1cnc([N+](=O)[O-])n1` (stereo not drawn) [DC37]: “A (50-100)”; for `N#Cc1cc(/C=C/C(c2cc(Cl)cc(Cl)c2)C(F)(F)F)ccc1-n1cnc(N)n1` (stereo not drawn) [DC38]: “A (50-100)”.
With `CC(=O)Nc1ncn(-c2ccc(/C=C/C(c3cc(Cl)cc(Cl)c3)C(F)(F)F)cc2C#N)n1` (stereo not drawn) [DC39], the “BAW Rating” value in assay [1] is recorded as “A (50-100)”.
Same read-out and setting: the same measure for `N#Cc1cc(/C=C/C(c2cc(Cl)c(Cl)c(Cl)c2)C(F)(F)F)ccc1-n1cnc([N+](=O)[O-])n1` (stereo not drawn) [DC40, (E)-2-(3-Nitro-1H-1,2,4-triazol-1-yl)-5-(4,4,4-trifluoro-3-(3,4,5-trichlorophenyl)but-1-en-1-yl)benzonitrile]: “A (50-100)”; for `N#Cc1cc(/C=C/C(c2cc(Cl)c(Cl)c(Cl)c2)C(F)(F)F)ccc1-n1cnc(N)n1` (stereo not drawn) [DC41, (E)-2-(3-Amino-1H-1,2,4-triazol-1-yl)-5-(4,4,4-trifluoro-3-(3,4,5-trichlorophenyl)but-1-en-1-yl)benzonitrile]: “A (50-100)”.
As to `N#Cc1cc(/C=C/C(c2cc(Cl)c(Cl)c(Cl)c2)C(F)(F)F)ccc1-n1cnc(N(C(=O)C2CC2)C(=O)C2CC2)n1` (stereo not drawn) [DC42, (E)-N-(1-(2-Cyano-4-(4,4,4-trifluoro-3-(3,4,5-trichlorophenyl)but-1-en-1-yl)phenyl)-1H-1,2,4-triazol-3-yl)-N-(cyclopropanecarbonyl)cyclopropanecarboxamide], the “BAW Rating” value in assay [1] is given as “A (50-100)”.
Same read-out and setting: with `N#Cc1cc(/C=C/C(c2cc(Cl)c(Cl)c(Cl)c2)C(F)(F)F)ccc1-n1cnc(NC(=O)C2CC2)n1` (stereo not drawn) [DC43, (E)-N-(1-(2-Cyano-4-(4,4,4-trifluoro-3-(3,4,5-trichlorophenyl)but-1-en-1-yl)phenyl)-1H-1,2,4-triazol-3-yl)cyclopropanecarboxamide] the entry was “A (50-100)”; with `Cc1cc(/C=C/C(c2cc(Cl)cc(Cl)c2)C(F)(F)F)cc(C#N)c1-n1cncn1` (stereo not drawn) [DC44], “A (50-100)”; with `Cc1cc(/C=C/C(c2cc(Cl)c(Cl)c(Cl)c2)C(F)(F)F)cc(C#N)c1-n1cncn1` (stereo not drawn) [DC45], “A (50-100)”.
The same measure, in the same setting: the same measure for `N#Cc1cc(/C=C\C(c2cc(Cl)c(F)c(Cl)c2)C(F)(F)F)ccc1-n1cncn1` (stereo not drawn) [DC46]: “A (50-100)”; for `FC(F)(F)C(/C=C/c1ccc(-n2cncn2)c(Br)c1)c1cc(Cl)cc(Cl)c1` (stereo not drawn) [DC47]: “A (50-100)”; for `Fc1cc(/C=C/C(c2cc(Cl)cc(Cl)c2)C(F)(F)F)ccc1-n1cncn1` (stereo not drawn) [DC48]: “A (50-100)”.
Still for that read-out and setting: with `FC(F)(F)C(/C=C/c1ccc(-n2cncn2)c(Cl)c1)c1cc(Cl)c(Cl)c(Cl)c1` (stereo not drawn) [DC49] the entry was “A (50-100)”; with `FC(F)(F)C(/C=C/c1ccc(-n2cncn2)c(Cl)c1)c1cc(Cl)cc(Cl)c1` (stereo not drawn) [DC50], “A (50-100)”; with `FC(F)(F)c1cc(/C=C/C(c2cc(Cl)cc(Cl)c2)C(F)(F)F)ccc1-n1cncn1` (stereo not drawn) [DC51], “A (50-100)”.
On to `CNc1cc(/C=C/C(c2cc(Cl)cc(Cl)c2)C(F)(F)F)ccc1-n1cncn1` (stereo not drawn) [DC57, (E)-5-(3-(3,5-Dichlorophenyl)-4,4,4-trifluorobut-1-en-1-yl)-N-methyl-2-(1H-1,2,4-triazol-1-yl)aniline], for which the “BAW Rating” value in assay [1] was “A (50-100)”.
Still for that read-out and setting: the same measure for `CCOC(=O)c1cc(/C=C/C(c2cc(Cl)cc(Cl)c2)C(F)(F)F)ccc1-n1cncn1` (stereo not drawn) [DC60]: “A (50-100)”; for `Cc1cc(/C=C/C(c2cc(Cl)cc(Cl)c2)C(F)(F)F)ccc1-n1cncn1` (stereo not drawn) [DC62]: “A (50-100)”.
On to `Cc1cc(/C=C/C(c2cc(Cl)c(Cl)c(Cl)c2)C(F)(F)F)ccc1-n1cncn1` (stereo not drawn) [DC63], for which the “BAW Rating” value in assay [1] is “A (50-100)”.
On to `FC(F)(F)C(/C=C/c1ccc(-n2cncn2)cc1Cl)c1cc(Cl)c(Cl)c(Cl)c1` (stereo not drawn) [DC66], for which, in assay [1], the “BAW Rating” value is “A (50-100)”.
Same read-out and setting: the same measure for `FC(F)(F)C(/C=C/c1ccc(-n2cncn2)cc1Cl)c1cc(Cl)cc(Cl)c1` (stereo not drawn) [DC67]: “A (50-100)”.
The same measure, in the same setting: with `C/C(=C\C(c1cc(Cl)cc(Cl)c1)C(F)(F)F)c1ccc(-n2cncn2)cc1` (stereo not drawn) [DC68, (E)-1-(4-(4-(3,5-Dichlorophenyl)-5,5,5-trifluoropent-2-en-2-yl)phenyl)-1H-1,2,4-triazole] the entry was “A (50-100)”.
In the case of `COC(/C=C/c1ccc(-n2cncn2)cc1)(c1cc(Cl)cc(Cl)c1)C(F)(F)F` (stereo not drawn) [DC70, (E)-1-(4-(3-(3,5-Dichlorophenyl)-4,4,4-trifluoro-3-methoxybut-1-en-1-yl)phenyl)-1H-1,2,4-triazole], in assay [1], the “BAW Rating” value was “A (50-100)”.
